From article PMC7822874, “Chemoprotective antimalarials identified through quantitative high-throughput screening of Plasmodium blood and liver stage parasites” (Scientific Reports, 2021)

tested on: Plasmodium falciparum Dd2 asexual blood stage parasites; experiment: microbe, parasite or virus in culture; parameters: species or system Plasmodium falciparum Dd2 in human erythrocytes; single determination (one 11-point concentration-response curve); conditions: Plasmodium falciparum, DD2, Erythrocyte, 72 h

Compound	AC50 [µM]
Cc1ccc(C)c(OCCn2cc(C(=O)c3ccco3)c3ccccc32)c1 [NCGC00101856-01]	5.31
CCN1CCN(Cc2ccc(NC(=O)c3ccc(C)c(NC(=O)C4=NN(c5ccccc5)C(=O)C4)c3)cc2C(F)(F)F)CC1 [MLS003105987-01]	8.41

same assay, conditions: Plasmodium falciparum, DD2, Erythrocyte, 72 h; read-out: AC50

Compound	AC50 [µM]
O=C(c1ccccc1F)N1CCC2(CC1)COc1ccccc1CN2 [NCGC00477550-01]	4.33
COc1ccc(-c2cc(C(=O)NCc3c(C)cc(C)[nH]c3=O)c3c(c2)N(C)CCO3)cn1 [NCGC00417013-01]	19.3
COc1cccc(Nc2ccc3c(n2)C(C)(C(=O)NCC2CC2)CN(C)C3)c1 (stereo not drawn) [NCGC00414531-01]	12.2
O=C(C1CC1)N1CCc2cc(Br)cc([S+](=O)([O-])N3CCN(c4cccc(C(F)(F)F)c4)CC3)c21 [NCGC00104294-01]	4.73
CC(Oc1ccc(F)cc1)C(=O)Nc1cc(Cl)ccc1-n1cncn1 (stereo not drawn) [MLS001157608-01]	6.68
COC(=O)c1cc(O)cc(OC)c1Oc1cc(C)cc(O)c1C(=O)O [MLS000863583-01]	4.22
CCCNC(=O)N1CC(Oc2cccc(-c3nc(-c4ccccc4)no3)c2)C1 [NCGC00441277-01]	13.3
O=c1nc(C2CCN(S(=O)(=O)c3ccc4c(c3)OCCO4)CC2)[nH]c2c1nnn2Cc1ccc(F)cc1 [MLS001216943-01]	8.41
CC(C(=O)N1CCCC1)N1CCN(S(=O)(=O)c2ccc(C(C)(C)C)cc2)CC1 (stereo not drawn) [MLS002156464-01]	3.35
COc1ccc(NC(=O)c2c(C)oc3ccc(O)c(CN4CCCC(C)C4)c23)cc1Cl (stereo not drawn) [NCGC00115530-01]	0.944
O[C@]1(c2ccccc2)CCN(Cc2ccco2)C[C@H]1N1CCCC1 [NCGC00442602-01]	8.41
CCN(CC)C(=O)c1sc(NC(=O)C(C)Sc2nc(-c3ccccc3)cc(C(F)(F)F)n2)c(C(=O)OC)c1C (stereo not drawn) [NCGC00101276-01]	0.596
COc1ccc(NC(=O)O[C@@H]2CC[C@]3(C)C(CC[C@@H](O)[C@H]3CC(=O)NCc3ccccc3OC)[C@]2(C)CO)cc1 (stereo partly drawn) [NCGC00398535-01]	6.68
COc1ccc2[nH]cc(CCNC(=O)C3(Cc4ccccc4)CCCCC(=O)N3)c2c1 (stereo not drawn) [NCGC00456177-01]	5.96
CC(C)Nc1nccc(C2(c3ccccc3Cl)CCNCC2)n1 [NCGC00440810-01]	9.44
COCC1CN(C)CC12CCN([S+](=O)([O-])c1ccc(F)c(Cl)c1)CC2 (stereo not drawn) [NCGC00461939-01]	13.3
CC1=C[C@@H](CN2CCCC2)[C@H](C(C)C)C[C@H]1Cc1nnc(-c2ccc([N+](=O)[O-])cc2)o1 [NCGC00395425-01]	3.85
CCc1cccc(NC(c2nnc(-c3ccccc3)o2)c2ccc(F)cc2Cl)c1 (stereo not drawn) [NCGC00129460-01]	6.68
O=C1NC(=O)/C(=C\c2ccc(N3CCOCC3)o2)N1 [MLS000724369-01]	9.44
CSc1cccc(Nc2nc3c([S+](=O)([O-])c4ccccc4)nnn3c3ccc(Cl)cc23)c1 [NCGC00112212-01]	1.88
O=C(c1nnc(CN2CCC(F)(F)CC2)n1-c1cccnc1)N1CCC[C@@H]1C(c1ccccc1)c1ccccc1 [NCGC00415758-01]	15
CN(C)CCNC(=O)c1cc(-c2ccccc2F)cc2c1OCCN2Cc1cccnc1 [NCGC00416987-01]	6.85
C[C@H]1[C@@H]2[C@@H](O)C([C@H](C)C(=O)NCc3cc(F)cc(F)c3)CC[C@@]2(C)CC[C@@H]1NC(=O)c1cncnc1 (stereo partly drawn) [NCGC00395377-01]	4.22
CCOc1ccc2c(c1)OC(c1ccc(C)cc1)(C(F)(F)F)NC2=O (stereo not drawn) [MLS000392832-01]	2.66
Cc1nn(C(=N)S)c(O)c1C(c1ccccc1)C(C#N)C#N (stereo not drawn) [MLS000077118-01]	6.68
CC(=O)Nc1cccc(-c2cc(C(=O)NCc3c(C)cc(C)[nH]c3=O)c3c(c2)N(C(C)C)CCO3)c1 [NCGC00417042-01]	9.44

Compound	AC50 [µM]
COc1ccc(N2CCN(Cc3cc4c(cc3O)CCC4)CC2)cc1 [MLS000572034-01]	16.8
Cc1c(Cl)cccc1Nc1nn2c(=O)c3ccc(C(=O)NCCc4ccccc4)cc3nc2s1 [NCGC00125565-01]	7.5
COCCN(CCOC)c1nc(N)c2c(N)nc3c(c2c1C#N)CC(=O)N3Cc1ccc(Cl)cc1 [MLS000402239-01]	5.96
COc1ccc(-c2cc(-c3ccc(N4CCOCC4)nc3)cn3cncc23)cc1 [NCGC00412184-01]	7.69
Cn1cc(CN2CCCC(COc3ccccc3C(=O)N3CCCC3)C2)c2ccccc21 (stereo not drawn) [NCGC00427140-01]	9.44
CCOc1cccc(CC(=O)Nc2ccc3nc(N4CCCCC4)cc(C)c3c2)c1OCC [NCGC00137846-01]	6.68
Cc1ccc(NC(=O)c2c(C)oc3ccc(O)c(CN4CCCCCC4)c23)cc1 [NCGC00115683-01]	2.11
Oc1ccc(Br)cc1CN1CCN(c2ccccc2)CC1 [MLS000106609-01]	2.11
Cc1cccc(CNCc2ccccc2OCC(O)CN2CCSCC2)c1 (stereo not drawn) [NCGC00428382-01]	1.5
CC1=C[C@@H](CN2CCC[C@H]2CO)[C@H](C(C)C)C[C@H]1Cc1nnc(-c2ccc(N(C)C)cc2)o1 [NCGC00394794-01]	13.3
Cc1cc(O)c(-c2ccnc3cc(-c4ccccc4)nn23)cc1Cl [NCGC00164840-01]	1.88
O=C(Nc1ccc(C(=O)OC[C@@H]2CCCN3CCCC[C@H]23)cc1)c1cccc(Br)c1 [MLS000700112-01]	6.68
Cc1cc2nc3n(c(=O)c2n1CC(=O)Nc1ccccc1C(C)C)CCCCC3 [NCGC00455404-01]	8.41
COc1ccc(CN2CCCCCNC(=O)CC2c2ccccc2)cc1Cn1ccnc1 (stereo not drawn) [NCGC00465444-01]	9.44
O=C(NCCc1c[nH]c2ccccc12)[C@@H]1C[C@H]2C(=O)NCCCCCCN(C(=O)c3ccco3)[C@H]2C1 [NCGC00465014-01]	10.6
Cc1oc2ccc(O)c(CN(C)Cc3ccccc3)c2c1C(=O)Nc1ccccc1 [NCGC00115689-01]	2.37
COc1ccc(N2CCN(c3oc(/C=C/c4cc(OC)c(OC)c(OC)c4)nc3C#N)CC2)cc1 [NCGC00116464-01]	2.66
O=[S+]([O-])(c1cccnc1)N1CCC2(CC1)NCCc1c2[nH]c2ccccc12 [NCGC00460719-01]	16.8
CC(=O)N1CCc2cc(Br)cc(S(=O)(=O)N3CCCCC3)c21 [MLS000936219-01]	5.96
COc1ccc(C2=C(Nc3ccccc3)c3ccccc3C2=O)cc1 [MLS000572234-01]	9.44
CC(C)C(=O)NC(c1ccc([N+](=O)[O-])cc1)c1c(O)ccc2ccccc12 (stereo not drawn) [MLS000571279-01]	13.3
NC(=O)C1CCN(CC(=O)Nc2cccc(C(=O)Nc3cccc(C(F)(F)F)c3)c2)CC1 [MLS000334956-01]	6.68
COc1ccc(CN2CC(Oc3ccccc3C(=O)NCc3ccccc3)C2)c(OC)c1 [NCGC00458086-01]	10.6
COC(=O)c1ccc(Nc2nnc(-c3ccc(C)c([S+](=O)([O-])N4CCN(C)CC4)c3)c3ccccc23)cc1 [NCGC00099996-01]	8.41
COc1cccc(-c2nn3c(=O)cc(CN4CCN([S+](=O)([O-])c5ccc(C)cc5)CC4)nc3s2)c1 [NCGC00134088-01]	8.41
COc1cc(C2NCc3ccccc3-n3cccc32)ccc1O (stereo not drawn) [MLS000047988-01]	2.66

Compound	AC50 [µM]
CCN(C(=O)CSc1nc(-c2ccc(C(C)C)cc2)no1)c1ccccc1 [NCGC00127904-01]	0.944
O=C(Cc1ccc2c(c1)OCO2)N1CCOCC2(CN(Cc3ccccc3)C2)C1 [NCGC00418996-01]	6.85
Cc1ccc(CN2C3CCCC2CC(NC(=O)Nc2cccc(F)c2)C3)cc1 (stereo not drawn) [MLS000709814-01]	10.6
COc1cc2nc(NCc3ccccc3)n3nc(-c4ccccc4)nc3c2cc1OC [NCGC00112829-01]	0.422
COCCOc1cc(-c2noc([C@@H]3CCCN3CC3CC3)n2)ccn1 [NCGC00394865-01]	15.3
CN1N=C(C(=O)N2CCc3c([nH]c4ccccc34)C2c2ccccc2Cl)CCC1=O (stereo not drawn) [MLS000733406-01]	5.31
COc1ccc(-n2cc(CNCCCn3ccnc3)c(-c3ccccc3Cl)n2)cc1 [MLS000734282-01]	3.35
CC(=O)Nc1ccc(NC(=O)c2c(C)oc3ccn(Cc4ccc(F)cc4)c(=O)c23)cc1 [NCGC00433889-01]	10.6
CC(C)Oc1ccc(C(=O)Nc2ccc3oc(-c4ccncc4)nc3c2)cc1 [NCGC00098730-01]	8.41
O=C(NC1CC1)C1CCN(S(=O)(=O)c2ccc(Cl)cc2)CC1 [MLS001220436-01]	13.3
CN1CCC2(C1)CN(Cc1ccccc1)c1ccc(C(=O)Nc3ccc(F)cc3)cc12 (stereo not drawn) [NCGC00419355-01]	19.3
COCCN1C(=O)c2ccccc2C(C(=O)Nc2nc3ccccc3[nH]2)C12CCCCC2 (stereo not drawn) [NCGC00423176-01]	4.73
Cc1oc(-c2ccc(Cl)cc2)nc1Cn1c(=O)cc(-c2ccccc2)c2c(C)nn(C)c21 [NCGC00130157-01]	9.44
CCOC(=O)c1cc2c(=O)n3ccccc3nc2n(CC(C)C)/c1=N\C(=O)COc1ccc(Cl)cc1 [NCGC00104075-01]	10.6
CCOc1ccc(-c2cc3nc(C4CCN(C(=O)OC(C)(C)C)CC4)c(C(=O)Nc4ccc(C(=O)OC)cc4)cn3n2)cc1 [NCGC00110849-01]	4.73
COc1cc2c(cc1OC1CCCC1)NC(=O)C21CCN(C(=O)c2cccc(C#N)c2)CC1 [NCGC00416876-01]	8.41
CCOc1nc(N=C(N)N)nc2c(C)cccc12 [MLS000570610-01]	10.6
CCc1ccc(Oc2c(C(F)(F)F)oc3c(CN4CCCC(C)C4)c(O)ccc3c2=O)cc1 (stereo not drawn) [NCGC00101514-01]	1.33
N=c1c2c3c(sc2ncn1Nc1ccccc1)CCC3 [MLS000858994-01]	3.35
O=C1N(c2ccccc2C(F)(F)F)O[C@@]1(c1ccccc1)C1CCCC1 [MLS002206604-01]	2.99
CC(C)=NOC(=O)c1c(C)noc1-c1snnc1C [MLS000834920-01]	6.68
COc1ccc(CN2C[C@H]3CN(Cc4c[nH]c5ccccc45)CCN3C2=O)cc1 [NCGC00392270-01]	3.85
Cc1cccc(C(=O)N2CCc3cc(CNC(=O)c4ccc(Br)o4)ccc32)c1 [NCGC00137781-01]	9.44
CCN1CCN(Cc2ccc(NC(=O)c3cc(NC(=O)c4cncc(-c5ccc(C#N)cc5)c4)cc(OC)c3)cc2C(F)(F)F)CC1 [MLS000911575-01]	0.596
